“And” between values parts separate entries of the source, which are not always exact repeats. Identical values can stand only once. Inconclusive results and toxic doses are left out.
System: CD2F1 mice, L1210 leukemia ip, survival T/C
Experiment: NCI In Vivo Anticancer Drug Screen. Data for tumor model L1210 Leukemia (intraperitoneal) in CD2F1 (CDF1) mice
Conditions: higher = longer survival
How it was run: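 Read-out first: treated-group measurement over vehicle-control measurement, expressed as a ratio. Animals bore a transplanted tumor line and were dosed with compound or vehicle.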

[1] = endpoint: mean survival time, dose: 100.0 mg/kg/injection, schedule: Q04DX002 (ip), vehicle: saline with Tween-80
[2] = endpoint: mean survival time, dose: 200.0 mg/kg/injection, schedule: Q04DX002 (ip), vehicle: saline with Tween-80
[3] = endpoint: mean survival time, dose: 400.0 mg/kg/injection, schedule: Q04DX002 (ip), vehicle: saline with Tween-80
[4] = endpoint: mean survival time, dose: 100.0 mg/kg/injection, schedule: Q04DX003 (ip), vehicle: Klucel (hydroxypropylcellulose) (HPC)
[5] = endpoint: mean survival time, dose: 200.0 mg/kg/injection, schedule: Q04DX003 (ip), vehicle: Klucel (hydroxypropylcellulose) (HPC)
[6] = endpoint: mean survival time, dose: 100.0 mg/kg/injection, schedule: Q04DX003 (ip), vehicle: saline with Tween-80
[7] = endpoint: mean survival time, dose: 200.0 mg/kg/injection, schedule: Q04DX003 (ip), vehicle: saline with Tween-80
[8] = endpoint: mean survival time, dose: 50.0 mg/kg/injection, schedule: Q01DX009 (ip), vehicle: saline with Tween-80
[9] = endpoint: mean survival time, dose: 25.0 mg/kg/injection, schedule: Q04DX002 (ip), vehicle: saline with Tween-80
[10] = endpoint: mean survival time, dose: 50.0 mg/kg/injection, schedule: Q04DX002 (ip), vehicle: saline with Tween-80
[11] = endpoint: mean survival time, dose: 12.5 mg/kg/injection, schedule: Q01DX009 (ip), vehicle: saline with Tween-80
[12] = endpoint: mean survival time, dose: 25.0 mg/kg/injection, schedule: Q04DX003 (ip), vehicle: saline with Tween-80
[13] = endpoint: mean survival time, dose: 50.0 mg/kg/injection, schedule: Q04DX003 (ip), vehicle: saline with Tween-80

## CC1=CCC(c2ccccc2)NC(=O)C1 (centres undefined)
[1]
  T/C: 96 % of control
[2]
  T/C: 104 % of control
[3]
  T/C: 104 % of control

## Cc1ccc(CS(=O)(=O)C(Cl)(Cl)c2ccc(C)cc2)cc1
[4]
  T/C: 94 % of control
[5]
  T/C: 100 % of control
endpoint: mean survival time, dose: 400.0 mg/kg/injection, schedule: Q04DX003 (ip), vehicle: Klucel (hydroxypropylcellulose) (HPC)
  T/C: 94 % of control

## COC(=O)Nc1nc2ccc(C(=O)c3cccs3)cc2[nH]1
endpoint: mean survival time, dose: 10.0 mg/kg/injection, schedule: Q04DX003 (ip), vehicle: Klucel (hydroxypropylcellulose) (HPC)
  T/C: 105 % of control
endpoint: mean survival time, dose: 10.0 mg/kg/injection, schedule: Q04DX003 (ip), vehicle: other
  T/C: 107 % of control
endpoint: mean survival time, dose: 20.0 mg/kg/injection, schedule: Q04DX003 (ip), vehicle: Klucel (hydroxypropylcellulose) (HPC)
  T/C: 110 % of control
endpoint: mean survival time, dose: 40.0 mg/kg/injection, schedule: Q04DX003 (ip), vehicle: Klucel (hydroxypropylcellulose) (HPC)
  T/C: 120 % of control
endpoint: mean survival time, dose: 40.0 mg/kg/injection, schedule: Q04DX003 (ip), vehicle: other
  T/C: 110 % of control
endpoint: mean survival time, dose: 60.0 mg/kg/injection, schedule: Q04DX003 (ip), vehicle: saline
  T/C: 221 % of control
endpoint: mean survival time, dose: 80.0 mg/kg/injection, schedule: Q04DX003 (ip), vehicle: Klucel (hydroxypropylcellulose) (HPC)
  T/C: 98 % of control
endpoint: mean survival time, dose: 90.0 mg/kg/injection, schedule: Q04DX003 (ip), vehicle: saline
  T/C: 121 % of control

## Nc1ncc(C(=O)c2ccccc2)cc1[N+](=O)[O-]
[6]
  T/C: 96 % of control
[7]
  T/C: 96 % of control

## O=C(O)c1ccc(SSc2ccc(C(=O)O)cn2)nc1
endpoint: mean survival time, dose: 100.0 mg/kg/injection, schedule: Q01DX009 (ip), vehicle: saline
  T/C: 102 % of control
endpoint: mean survival time, dose: 200.0 mg/kg/injection, schedule: Q01DX009 (ip), vehicle: saline
  T/C: 96 % of control
endpoint: mean survival time, dose: 400.0 mg/kg/injection, schedule: Q01DX009 (ip), vehicle: saline
  T/C: 94 % of control

## CNC(C)C(O)c1ccc(O)cc1 (centres undefined)
endpoint: mean survival time, dose: 50.0 mg/kg/injection, schedule: Q01DX001 (ip), vehicle: carboxymethylcellulose (CMC)
  T/C: 112 % of control
endpoint: mean survival time, dose: 100.0 mg/kg/injection, schedule: Q01DX001 (ip), vehicle: carboxymethylcellulose (CMC)
  T/C: 108 % of control
endpoint: mean survival time, dose: 200.0 mg/kg/injection, schedule: Q01DX001 (ip), vehicle: carboxymethylcellulose (CMC)
  T/C: 108 % of control
endpoint: mean survival time, dose: 400.0 mg/kg/injection, schedule: Q01DX001 (ip), vehicle: carboxymethylcellulose (CMC)
  T/C: 104 % of control

## Cc1ccc(S(=O)(=O)OCCC=C(c2ccccc2)c2ccccc2)cc1
[8]
  T/C: 101 % of control
endpoint: mean survival time, dose: 100.0 mg/kg/injection, schedule: Q01DX009 (ip), vehicle: saline with Tween-80
  T/C: 101 % of control
endpoint: mean survival time, dose: 200.0 mg/kg/injection, schedule: Q01DX009 (ip), vehicle: saline with Tween-80
  T/C: 96 % of control

## NC(=O)C1CC=CCC1 (centres undefined)
[9]
  T/C: 110 % of control
[10]
  T/C: 98 % of control
[1]
  T/C: 94 % of control
[2]
  T/C: 105 % of control

## CCCCn1c(C)nc2c(N)cc(C(F)(F)F)cc21
endpoint: mean survival time, dose: 12.5 mg/kg/injection, schedule: Q01DX009 (ip), vehicle: Klucel (hydroxypropylcellulose) (HPC)
  T/C: 100 % of control
endpoint: mean survival time, dose: 25.0 mg/kg/injection, schedule: Q01DX001 (ip), vehicle: Klucel (hydroxypropylcellulose) (HPC)
  T/C: 96 % of control
endpoint: mean survival time, dose: 25.0 mg/kg/injection, schedule: Q01DX009 (ip), vehicle: Klucel (hydroxypropylcellulose) (HPC)
  T/C: 91 % of control
endpoint: mean survival time, dose: 25.0 mg/kg/injection, schedule: Q04DX003 (ip), vehicle: Klucel (hydroxypropylcellulose) (HPC)
  T/C: 96 % of control
endpoint: mean survival time, dose: 50.0 mg/kg/injection, schedule: Q01DX001 (ip), vehicle: Klucel (hydroxypropylcellulose) (HPC)
  T/C: 102 % of control
endpoint: mean survival time, dose: 50.0 mg/kg/injection, schedule: Q01DX009 (ip), vehicle: Klucel (hydroxypropylcellulose) (HPC)
  T/C: 100 % of control
endpoint: mean survival time, dose: 50.0 mg/kg/injection, schedule: Q04DX003 (ip), vehicle: Klucel (hydroxypropylcellulose) (HPC)
  T/C: 100 % of control
endpoint: mean survival time, dose: 100.0 mg/kg/injection, schedule: Q01DX001 (ip), vehicle: Klucel (hydroxypropylcellulose) (HPC)
  T/C: 97 % of control
endpoint: mean survival time, dose: 100.0 mg/kg/injection, schedule: Q01DX009 (ip), vehicle: Klucel (hydroxypropylcellulose) (HPC)
  T/C: 102 % of control
[4]
  T/C: 93 % of control
endpoint: mean survival time, dose: 200.0 mg/kg/injection, schedule: Q01DX001 (ip), vehicle: Klucel (hydroxypropylcellulose) (HPC)
  T/C: 94 % of control
[5]
  T/C: 100 % of control

## COc1ccc(CN(C)CCO)cc1OC
endpoint: median survival time, dose: 25.0 mg/kg/injection, schedule: Q04DX003 (ip), vehicle: saline
  T/C: 100 % of control
endpoint: median survival time, dose: 50.0 mg/kg/injection, schedule: Q04DX003 (ip), vehicle: saline
  T/C: 100 % of control
endpoint: median survival time, dose: 100.0 mg/kg/injection, schedule: Q04DX003 (ip), vehicle: saline
  T/C: 90 % of control
endpoint: median survival time, dose: 200.0 mg/kg/injection, schedule: Q04DX003 (ip), vehicle: saline
  T/C: 100 % of control

## COC(=O)C1CC2C(CCC3C(C)(C(=O)OC)CCCC23C)C(=O)C1(O)C(C)C (centres undefined)
[6]
  T/C: 101 % of control
[7]
  T/C: 105 % of control
endpoint: mean survival time, dose: 400.0 mg/kg/injection, schedule: Q04DX003 (ip), vehicle: saline with Tween-80
  T/C: 91 % of control

## CC(=O)c1ccco1
[11]
  T/C: 96 % of control
endpoint: mean survival time, dose: 25.0 mg/kg/injection, schedule: Q01DX009 (ip), vehicle: saline with Tween-80
  T/C: 95 % of control
[12]
  T/C: 104 % of control
[8]
  T/C: 98 % of control
[13]
  T/C: 122 % of control

## CCOC(=O)c1c2cccccc-2c(C#N)c1O
endpoint: mean survival time, dose: 100.0 mg/kg/injection, schedule: Q01DX001 (ip), vehicle: saline with Tween-80
  T/C: 93 % of control
endpoint: mean survival time, dose: 200.0 mg/kg/injection, schedule: Q01DX001 (ip), vehicle: saline with Tween-80
  T/C: 99 % of control
endpoint: mean survival time, dose: 400.0 mg/kg/injection, schedule: Q01DX001 (ip), vehicle: saline with Tween-80
  T/C: 96 % of control

## [Na+]
endpoint: median survival time, dose: 25.0 mg/kg/injection, schedule: Q01DX009 (ip), vehicle: water
  T/C: 105 % of control
endpoint: median survival time, dose: 50.0 mg/kg/injection, schedule: Q01DX009 (ip), vehicle: water
  T/C: 102 % of control
endpoint: median survival time, dose: 100.0 mg/kg/injection, schedule: Q01DX009 (ip), vehicle: water
  T/C: 93 % of control
endpoint: median survival time, dose: 200.0 mg/kg/injection, schedule: Q01DX009 (ip), vehicle: water
  T/C: 100 % of control
endpoint: median survival time, dose: 400.0 mg/kg/injection, schedule: Q01DX009 (ip), vehicle: water
  T/C: 105 % of control

## CC1=C2CCCCC2(C)CCC1=O (centres undefined)
[1]
  T/C: 120 % of control
[2]
  T/C: 108 % of control
[3]
  T/C: 100 % of control

## CNC
endpoint: mean survival time, dose: 100.0 mg/kg/injection, schedule: Q04DX002 (ip), vehicle: saline
  T/C: 86 % of control

## CC(C)(C)c1cc([N+](C)(C)C)cc(C(C)(C)C)n1
endpoint: mean survival time, dose: 12.5 mg/kg/injection, schedule: Q04DX002 (ip), vehicle: saline with Tween-80
  T/C: 96 % of control
[9]
  T/C: 92 % of control
[10]
  T/C: 100 % of control

## CC1(C)CCCC2(C)C1C(=O)C=CC2(O)CCc1ccoc1.CC12CCc3ccoc3C1CCC1(C(=O)O)C(CO)=CCCC12.[Ag] (centres undefined)
endpoint: mean survival time, dose: 75.0 mg/kg/injection, schedule: Q04DX002 (ip), vehicle: other
  T/C: 103 % of control
endpoint: mean survival time, dose: 150.0 mg/kg/injection, schedule: Q04DX002 (ip), vehicle: other
  T/C: 115 % of control
endpoint: mean survival time, dose: 300.0 mg/kg/injection, schedule: Q04DX002 (ip), vehicle: other
  T/C: 107 % of control

## OC(c1ccccc1)(c1ccccc1)c1ccc(CN2CCOCC2)cc1
endpoint: mean survival time, dose: 12.5 mg/kg/injection, schedule: Q01DX009 (ip), vehicle: other
  T/C: 101 % of control
endpoint: mean survival time, dose: 25.0 mg/kg/injection, schedule: Q01DX009 (ip), vehicle: other
  T/C: 98 % of control
endpoint: mean survival time, dose: 50.0 mg/kg/injection, schedule: Q01DX009 (ip), vehicle: other
  T/C: 93 % of control
endpoint: mean survival time, dose: 100.0 mg/kg/injection, schedule: Q01DX009 (ip), vehicle: other
  T/C: 90 % of control
endpoint: mean survival time, dose: 200.0 mg/kg/injection, schedule: Q01DX009 (ip), vehicle: other
  T/C: 98 % of control

## COC(=O)[C@@H]1c2cc3c(c(O)c2[C@@H](OC2OC(C)C(OC)C(C)(OC)C2OC)C[C@]1(C)O)C(=O)c1c(O)cc2c(c1C3=O)O[C@H]1O[C@]2(C)[C@H](O)[C@@H](N(C)C)[C@@H]1O (some centres undefined)
endpoint: mean survival time, dose: 0.25 mg/kg/injection, schedule: Q01DX009 (ip), vehicle: other
  T/C: 120 % of control and 112 % of control
endpoint: mean survival time, dose: 0.5 mg/kg/injection, schedule: Q01DX009 (ip), vehicle: other
  T/C: 116 % of control and 108 % of control
endpoint: mean survival time, dose: 1.0 mg/kg/injection, schedule: Q01DX009 (ip), vehicle: other
  T/C: 93 % of control and 110 % of control

## CCCCCCCCCCCCCCCC[n+]1ccc(C(N)=O)cc1
[11]
  T/C: 105 % of control
endpoint: mean survival time, dose: 12.5 mg/kg/injection, schedule: Q04DX003 (ip), vehicle: saline with Tween-80
  T/C: 100 % of control
[12]
  T/C: 98 % of control
[13]
  T/C: 97 % of control

From PubChem BioAssay AID256 (DTP/NCI, 2004)
